Results reported in ChEMBL document CHEMBL1132513, “Manipulation of the C(22)-C(27) region of rapamycin: stability issues and biological implications” (Bioorg Med Chem Lett, 1999).

Legend:
[1] = The activity in the LAF assay is best expressed as a ratio of the rapamycin IC50 (1-9 nM) /analogue IC50 (R/A); type: functional
Mus musculus [2] = species: Mus musculus; assay: In vitro ability to inhibit lymphoproliferation (LAF) in vitro using cells from the thymus of normal BALB/c mice; type: functional
[3] = Half life was determined; type: ADME; conditions: rat
[4] = Ability to bind to FK506 binding protein via its inhibition of peptidyl prolyl cis-trans isomerase activity (PPIase) inherent to FKBP
Mus musculus [5] = assay: Ability to prevent transplantation rejection in vivo in mouse skin graft model; type: functional

Row | SMILES | Ratio [1] | IC50 (Mus musculus [2]) [nM] | half-life [3] [h] | IC50 [4] [nM] | Survival (Mus musculus [5]) | Skin Graft Survival (Mus musculus [5])
1 | CO[C@H]1C[C@@H]2CC[C@@H](C)[C@@](O)(O2)C(=O)C(=O)N2CCCCC2(C)C(=O)O[C@H]([C@H](C)C[C@H]2CC[C@H](O)[C@@H](OC)C2)CC(=O)[C@H](C)/C=C(\C)[C@@H](O)[C@@H](OC)C(=O)[C@H](C)C[C@H](C)/C=C/C=C/C=C/1C (stereo not given in full) | 0.42 | 23 | 38.4 | 95 | 9.33 | 
2 | CCC12CCCCN1C(=O)C(=O)[C@]1(O)O[C@@H](CC[C@H]1C)C[C@H](OC)/C(C)=C/C=C/C=C/[C@@H](C)C[C@@H](C)C(=O)[C@H](OC)[C@H](O)/C(C)=C/[C@@H](C)C(=O)C[C@@H]([C@H](C)C[C@H]1CC[C@H](O)[C@H](OC)C1)OC2=O (stereo not given in full) | 0.07 | 140 |  | 950 |  | 
3 | CO[C@H]1C[C@@H]2CC[C@@H](C)[C@@](O)(O2)C(=O)C(=O)N2CCCC[C@H]2C(=O)O[C@H](C[C@H](O)[C@H](C)C[C@@H]2CC[C@@H](O)[C@H](OC)C2)[C@H](C)/C=C(\C)[C@@H](O)[C@@H](OC)C(=O)[C@H](C)C[C@H](C)/C=C/C=C/C=C/1C | 0.42 | 16 | 21.6 | 310 | 7 | 
4 | CO[C@H]1C[C@@H]2CC[C@@H](C)[C@@](O)(O2)C(=O)C(=O)N2CCCC[C@H]2C(=O)O[C@H]([C@H](C)C[C@@H]2CC[C@@H](O)[C@H](OC)C2)CC(=O)[C@H](C)/C=C(\C)[C@@H](O)[C@@H](OC)C(=O)[C@H](C)C[C@H](C)/C=C/C=C/C=C/1C [SIROLIMUS] |  | 3 | 13 | 15 |  | 12
5 | CO[C@H]1C[C@@H]2CC[C@@H](C)[C@@](O)(O2)C(=O)C(=O)N2CCCCC2(C)C(=O)O[C@H]([C@H](C)C[C@H]2CC[C@H](O)[C@@H](OC)C2)CC(O)[C@H](C)/C=C(\C)[C@@H](O)[C@@H](OC)C(=O)[C@H](C)C[C@H](C)/C=C/C=C/C=C/1C (stereo not given in full) | 0.23 | 9.9 | 14.6 | 150 | 7 | 
6 | CO[C@H]1C[C@@H]2CC[C@@H](C)[C@@](O)(O2)C(=O)C(=O)N2CCCC[C@H]2C(=O)O[C@H]([C@H](C)C[C@H]2CC[C@H](O)[C@@H](OC)C2)C[C@@H](OC(C)=O)[C@H](C)/C=C(\C)[C@@H](O)[C@@H](OC)C(=O)[C@H](C)C[C@H](C)/C=C/C=C/C=C/1C | 0.08 | 99 | 34 |  |  | 
7 | CO[C@H]1C[C@@H]2CC[C@@H](C)[C@@](O)(O2)C(=O)C(=O)N2CCCC[C@H]2C(=O)O[C@H]([C@H](C)C[C@H]2CC[C@H](O)[C@@H](OC)C2)CC(O)[C@H](C)/C=C(\C)[C@@H](O)[C@@H](OC)C(=O)[C@H](C)C[C@H](C)/C=C/C=C/C=C/1C (stereo not given in full) | 1.3 | 3.7 | 17.5 | 22 |  | 8.5
